Measurements reported in publication PMC10010643 (Cancer Chemotherapy and Pharmacology, 2023).
“And” between values parts separate entries of the source, which are not always exact repeats. Identical values can stand only once. Like-named read-outs stand apart in the source and are kept apart here.

Legend:
[1] = system: human macrophages; set-up: method as in PMID 36154172; conditions: in vitro; cited from earlier work
[2] = system: lung fibrosis; set-up: method as in PMID 36154172; conditions: bleomycin-induced; cited from earlier work
[3] = Plasma PK, Part B multiple oral BID doses in healthy participants; format: in vivo, human; conditions: for concentration at 12 h / AUC / Cmax / Tmax / half-life / Vd/F: human, plasma, oral; for concentration at 12 h: read-out: Trough (12 h post-dose) concentration (Cmin), geometric mean (range); for AUC: read-out: AUC0-τ, geometric mean (CV%); for Cmax: read-out: Cmax, geometric mean (CV%); for half-life: read-out: t½, arithmetic mean (SD) (converted); for Vd/F: read-out: Vz/F, geometric mean (CV%)
Protocol: (§1) Following review of safety, tolerability, and PK data from cohorts A1–A6, participants received twice-daily doses (BID) under fasted conditions on days 1–9 and a final single dose in the morning of day 10. […] There was one treatment period and all participants stayed at the CRU from day − 1 until the morning of day 11 (24 h after the final dose on day 10). All were to return for a follow-up visit 5–7 days after their final dose.
Blood samples (4 mL) were collected in K3 EDTA tubes by venipuncture or cannulation. In Part A, samples were taken pre-dose and at 0.5, 1, 1.5, 2, 3, 4, 6, 8, 12, 16, 24, 36 and 48 h post-dose. In part B, samples were taken pre-dose on days 1 (pre-AM dose) and 10 (pre-final dose) and at 0.5, 1, 1.5, 2, 3, 4, 6, 8 and 12 h post-AM dose for day 1 and post-final dose for day 10. Samples were also taken on days 4–9 pre-AM dose, on day 11 at 24 and 36 h post-final dose, and on day 12 at 48 h post-final dose. Blood samples were centrifuged at 1500 g for 10 min at […] and split into two plasma aliquots.
Urine was collected by spot collection in Part A only before dosing and between 0–6, 6–12, 12–24, and 24–48 h post-dose. Blood and urine aliquots were stored in polypropylene tubes at − 70 °C until bioanalysis.
In Part B, the plasma PK parameters included AUC over a dosing interval (AUC0–τ), AUC0–∞, Cmax, Tmax, t½, minimum observed plasma concentration (Cmin), observed accumulation ratio based on AUC0–τ (RAAUC0–τ) and observed accumulation ratio based on Cmax (RACmax). Further details can be found in the Supplementary materials.
Dose proportionality was analyzed for exposure parameters after fasted doses. The power model was used on AUC0–∞, AUC0–tlast, and Cmax on day 1 in Part A. Data were analyzed over two dose ranges: 50–400 mg (50 mg capsules) and 5–50 mg (5 mg capsules). An analysis of variance was used on AUC0–τ and Cmax on day 10 in Part B. The effect of food on AUC0–∞, AUC0–tlast, and Cmax at 50 mg in Part A was investigated using a mixed model which included treatment as a fixed effect and subject as a random effect.

[4] = Safety and tolerability, Part B multiple ascending-dose phase in healthy participants; format: in vivo, human
Protocol: as §1
Safety and tolerability assessments included adverse event (AE) monitoring, physical examinations, laboratory assessments (hematology, clinical chemistry, and urinalysis), vital signs (blood pressure, pulse rate, and body temperature) and ECG.
No formal statistical assessment was performed for the safety analysis.

[5] = 50 mg, 50 mg BID, fasted, Day 1
[6] = 50 mg, 50 mg BID, fasted, Day 10
[7] = 100 mg, 100 mg BID, fasted, Day 1
[8] = 100 mg, 100 mg BID, fasted, Day 10

Structure (SMILES): OC[C@H]1O[C@H](Sc2cncc(Br)c2)[C@H](O)[C@@H](n2cc(-c3cc(F)c(F)c(F)c3)nn2)[C@H]1O [GB1211]
- Galectin-3 expression on human macrophages [1]: potently inhibited galectin-3 expression
- Fibrosis in vivo, lung [2]: reducing fibrosis
- CL/F, geometric mean (CV%) ([3]; 50 mg BID, fasted, Day 10): 9.75 (29.0) L/h
- Cmin, geometric mean (CV%) ([3]; 50 mg BID, fasted, Day 10): 249 (26.2) ng/mL
- CL/F, geometric mean (CV%) ([3]; 100 mg BID, fasted, Day 10): 13.3 (21.1) L/h
- Cmin, geometric mean (CV%) ([3]; 100 mg BID, fasted, Day 10): 338 (27.5) ng/mL
- t½, arithmetic mean (SD) ([3]; 100 mg BID, fasted, Day 10): 13.1 (2.65) h
- Dose proportionality of AUC0–τ and Cmax ([3]; 50 and 100 mg BID, day 10): sub-proportional manner
- Time to steady-state after the start of the BID multiple-dosing period ([3]; by the morning of day 3): 48 h
- concentration at 12 h ([3]; 50 mg BID, day 10): 249 ng/mL
- AUC [3, 5]: 2220 ng·h/mL
- Cmax [3, 5]: 330 ng/mL
- Tmax ([3]; 50 mg, 50 mg BID, fasted, Day 1, read-out: Tmax, median (min–max)): 4 h
- AUC [3, 6]: 5130 ng·h/mL
- Cmax [3, 6]: 658 ng/mL
- Tmax ([3]; 50 mg, 50 mg BID, fasted, Day 10, read-out: Tmax, median (min–max)): 2.5 h
- half-life [3, 6]: ~21.4 h
- concentration at 12 h ([3]; 100 mg BID, day 10): 338 ng/mL
- AUC [3, 7]: 3560 ng·h/mL
- Cmax [3, 7]: 546 ng/mL
- Tmax ([3]; 100 mg, 100 mg BID, fasted, Day 1, read-out: Tmax, median (min–max)): 3 h
- AUC [3, 8]: 7530 ng·h/mL
- Cmax [3, 8]: 975 ng/mL
- Tmax ([3]; 100 mg, 100 mg BID, fasted, Day 10, read-out: Tmax, median (min–max)): 3 h
- half-life [3, 8]: ~13.1 h
- Tmax ([3]; multiple BID doses, days 1 and 10, read-out: Median Tmax, range): 2.5 to 4 h
- Vd/F ([3]; 50 mg BID, fasted, Day 10): 311 L
- Vd/F ([3]; 100 mg BID, fasted, Day 10): 248 L
- Accumulation in plasma with multiple dosing ([3]; multiple BID oral dosing): ~ twofold
- Time to steady-state ([3]; multiple BID oral dosing): ≤ 3 days
- Number of TEAEs ([4]; 50 mg BID): 8
- Participants discontinued due to TEAEs ([4]; 50 mg BID): 0 n (%)
- Participants with SAEs ([4]; 50 mg BID): 0 n (%)
- Participants with TEAEs ([4]; 50 mg BID): 4 (50.0) n (%) and 4 (50.0%) n (%)
- Severity (all TEAEs): Mild ([4]; 50 mg BID): 2 (25.0) n (%)
- Severity (all TEAEs): Moderate ([4]; 50 mg BID): 2 (25.0) n (%)
- Severity (all TEAEs): Severe ([4]; 50 mg BID): 0 n (%)
- Severity (all TEAEs): Total ([4]; 50 mg BID): 4 (50.0) n (%)
- Severity (possibly related to study treatment): Mild ([4]; 50 mg BID): 2 (25.0) n (%)
- Severity (possibly related to study treatment): Moderate ([4]; 50 mg BID): 2 (25.0) n (%)
- Severity (possibly related to study treatment): Severe ([4]; 50 mg BID): 0 n (%)
- Severity (possibly related to study treatment): Total ([4]; 50 mg BID): 4 (50.0) n (%)
- TEAE Abdominal distension, participants ([4]; 50 mg BID): 0 n (%)
- TEAE Abdominal pain upper, participants ([4]; 50 mg BID): 0 n (%)
- TEAE Abdominal pain, participants ([4]; 50 mg BID): 0 n (%)
- TEAE Arthralgia, participants ([4]; 50 mg BID): 0 n (%)
- TEAE Constipation, participants ([4]; 50 mg BID): 0 n (%)
- TEAE Dysuria, no. of AEs ([4]; 50 mg BID): 1
- TEAE Dysuria, participants ([4]; 50 mg BID): 1 (12.5%) n (%)
- TEAE Gastrointestinal disorders, participants ([4]; 50 mg BID): 0 n (%)
- TEAE Headache, no. of AEs ([4]; 50 mg BID): 5
- TEAE Headache, participants ([4]; 50 mg BID): 4 (50.0%) n (%)
- TEAE Injury, poisoning and procedural complications, no. of AEs ([4]; 50 mg BID): 1
- TEAE Injury, poisoning and procedural complications, participants ([4]; 50 mg BID): 1 (12.5%) n (%)
- TEAE Limb injury, no. of AEs ([4]; 50 mg BID): 1
- TEAE Limb injury, participants ([4]; 50 mg BID): 1 (12.5%) n (%)
- TEAE Menstruation irregular, no. of AEs ([4]; 50 mg BID): 1
- TEAE Menstruation irregular, participants ([4]; 50 mg BID): 1 (12.5%) n (%)
- TEAE Musculoskeletal and connective tissue disorders, participants ([4]; 50 mg BID): 0 n (%)
- TEAE Nervous system disorders, no. of AEs ([4]; 50 mg BID): 5
- TEAE Nervous system disorders, participants ([4]; 50 mg BID): 4 (50.0%) n (%)
- TEAE Pain in extremity, participants ([4]; 50 mg BID): 0 n (%)
- TEAE Pollakiuria, participants ([4]; 50 mg BID): 0 n (%)
- TEAE Renal and urinary disorders, no. of AEs ([4]; 50 mg BID): 1
- TEAE Renal and urinary disorders, participants ([4]; 50 mg BID): 1 (12.5%) n (%)
- TEAE Reproductive system and breast disorders, no. of AEs ([4]; 50 mg BID): 1
- TEAE Reproductive system and breast disorders, participants ([4]; 50 mg BID): 1 (12.5%) n (%)
- Number of TEAEs considered moderate ([4]; 50 mg BID cohort): Two
- Number of TEAEs ([4]; 100 mg BID): 8
- Participants discontinued due to TEAEs ([4]; 100 mg BID): 0 n (%)
- Participants with SAEs ([4]; 100 mg BID): 0 n (%)
- Participants with TEAEs ([4]; 100 mg BID): 3 (37.5) n (%) and 3 (37.5%) n (%)
- Severity (all TEAEs): Mild ([4]; 100 mg BID): 3 (37.5) n (%)
- Severity (all TEAEs): Moderate ([4]; 100 mg BID): 0 n (%)
- Severity (all TEAEs): Severe ([4]; 100 mg BID): 0 n (%)
- Severity (all TEAEs): Total ([4]; 100 mg BID): 3 (37.5) n (%)
- Severity (possibly related to study treatment): Mild ([4]; 100 mg BID): 3 (37.5) n (%)
- Severity (possibly related to study treatment): Moderate ([4]; 100 mg BID): 0 n (%)
- Severity (possibly related to study treatment): Severe ([4]; 100 mg BID): 0 n (%)
- Severity (possibly related to study treatment): Total ([4]; 100 mg BID): 3 (37.5) n (%)
- TEAE Abdominal distension, no. of AEs ([4]; 100 mg BID): 1
- TEAE Abdominal distension, participants ([4]; 100 mg BID): 1 (12.5%) n (%)
- TEAE Abdominal pain upper, no. of AEs ([4]; 100 mg BID): 1
- TEAE Abdominal pain upper, participants ([4]; 100 mg BID): 1 (12.5%) n (%)
- TEAE Abdominal pain, participants ([4]; 100 mg BID): 0 n (%)
- TEAE Arthralgia, no. of AEs ([4]; 100 mg BID): 1
- TEAE Arthralgia, participants ([4]; 100 mg BID): 1 (12.5%) n (%)
- TEAE Constipation, no. of AEs ([4]; 100 mg BID): 2
- TEAE Constipation, participants ([4]; 100 mg BID): 2 (25.0%) n (%)
- TEAE Dysuria, participants ([4]; 100 mg BID): 0 n (%)
- TEAE Gastrointestinal disorders, no. of AEs ([4]; 100 mg BID): 4
- TEAE Gastrointestinal disorders, participants ([4]; 100 mg BID): 2 (25.0%) n (%)
- TEAE Headache, participants ([4]; 100 mg BID): 0 n (%)
- TEAE Injury, poisoning and procedural complications, participants ([4]; 100 mg BID): 0 n (%)
- TEAE Limb injury, participants ([4]; 100 mg BID): 0 n (%)
- TEAE Menstruation irregular, participants ([4]; 100 mg BID): 0 n (%)
- TEAE Musculoskeletal and connective tissue disorders, no. of AEs ([4]; 100 mg BID): 2
- TEAE Musculoskeletal and connective tissue disorders, participants ([4]; 100 mg BID): 1 (12.5%) n (%)
- TEAE Nervous system disorders, participants ([4]; 100 mg BID): 0 n (%)
- TEAE Pain in extremity, no. of AEs ([4]; 100 mg BID): 1
- TEAE Pain in extremity, participants ([4]; 100 mg BID): 1 (12.5%) n (%)
- TEAE Pollakiuria, no. of AEs ([4]; 100 mg BID): 2
- TEAE Pollakiuria, participants ([4]; 100 mg BID): 2 (25.0%) n (%)
- TEAE Renal and urinary disorders, no. of AEs ([4]; 100 mg BID): 2
- TEAE Renal and urinary disorders, participants ([4]; 100 mg BID): 2 (25.0%) n (%)
- TEAE Reproductive system and breast disorders, participants ([4]; 100 mg BID): 0 n (%)
- Participants with a TEAE possibly related to treatment, GB1211 ([4]; Part B): 7
- Number of TEAEs on GB1211 ([4]; Part B, all GB1211 doses): 16
- Participants with TEAEs on GB1211 ([4]; Part B, all GB1211 doses): 7
